Measurements as given in patent US8680092B2, “Nitrogenous heterocyclic compound and medicinal use thereof” (Ono Pharmaceutical Co., Ltd., priority 2005, dated 2014).

Biological target: T1, CXCR4 (Homo sapiens, UniProt P61073)
T1 construct: a human T cell strain in which CXCR4 is known to be expressed; endogenous in cells; host or cells: CEM cells (human T cell strain)
Assay: Study for inhibition of binding human SDF-1 to CEM cells
Settings: human T cell strain CEM cells, 125I-SDF-1, 4° C. for 60 minutes
Excerpt: As mentioned above, a more direct procedure is a screening a compound that prevents for HIV from binding to CXCR4, which is a receptor on CD4+ cell, on an assay system using HIV. However, using HIV for a large-scale screening is not practical due to its difficult handling. On the other hand, both of T cell-directed (X4) HIV-1 and SDF-1 bind to CXCR4 and therefore CXCR4 binding sites at both of HIV-side and SDF-1-side as well as SDF-1- and HIV-binding sites at the CXCR4 side may presumably have any common characteristics. […]
To human T cell strain CEM cells in a binding buffer (containing HEPES and BSA), the test compound and ^125I-SDF-1 (NEN) were added and the mixture was incubated at 4° C. for 60 minutes. […] An amount of the radioactivity bound to the CEM cells was measured using Top Count (Packard) and inhibition (%) of the test compound was calculated according to the following equation: Inhibition=(Et−Ea)/(Et−Ec)×100
Et: amount of radioactivity when the test compound is not added,
Ec: amount of radioactivity when non-radioactive SDF-1 (Pepro Tech) is added in an amount of 1000 times as much as ^125I-SDF-1 as a test compound, and
Ea: amount of radioactivity when the test compound is added.

T1 sequence (P61073 whole entry): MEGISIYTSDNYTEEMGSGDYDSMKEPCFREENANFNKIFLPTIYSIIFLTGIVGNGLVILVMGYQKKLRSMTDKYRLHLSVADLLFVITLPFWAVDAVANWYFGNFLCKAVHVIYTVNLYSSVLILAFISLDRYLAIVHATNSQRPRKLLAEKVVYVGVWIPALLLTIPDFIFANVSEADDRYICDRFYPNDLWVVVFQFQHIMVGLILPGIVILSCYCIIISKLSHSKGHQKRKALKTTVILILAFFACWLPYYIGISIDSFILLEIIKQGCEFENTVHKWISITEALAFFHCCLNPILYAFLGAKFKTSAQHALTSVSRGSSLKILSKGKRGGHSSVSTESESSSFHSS

SMILES: NCCC[C@@H]1[C@@H](Nc2nccc(N3CCCCCC3)n2)CCN1C1CCCCC1 [compound 10-2, N-[(2R,3S)-2-(3-aminopropyl)-1-cyclohexyl-3-pyrrolidinyl]-4-(1-azepanyl)-2-pyrimidinamine]
- IC50: 1.6 nM
